Data: patent US20180117006A1, “ANTI-FUGETACTIC AGENT AND IMMUNOTHERAPY AGENT COMBINATION THERAPY AND COMPOSITIONS FOR THE TREATMENT OF CANCER” (THE GENERAL HOSPITAL CORPORATION, priority 2015, published 2018)

Tested on: tumor that expresses high levels of CXCL12
Experiment: Tumor growth in mice with a subcutaneous CXCL12-expressing tumor
Type: in vivo
Conditions: AMD3100 subcutaneous once a day for 5 days, then NK-92 cells intraperitoneal one to three days after the final dose, contemplated synergistic effect
Experimental: Mice are injected with tumor cells (subcutaneous injection) from a tumor that expresses high levels of CXCL12 and a tumor allowed to develop. Once the tumor has formed, the mice are injected (subcutaneous in the same flank as the tumor) with AMD3100 or vehicle, once a day for 5 days.
One to three days after the final dose of AMD3100, mice are injected via intraperitoneal injection with NK-92 cells or vehicle 18 hours prior to assay of tumor growth. Tumor growth in mice is delayed by NK-92 cell treatment, but resumes soon after the treatment is discontinued in mice that were not administered AMD3100.

Question: With `c1cc(CN2CCCNCCNCCCNCC2)ccc1CN1CCCNCCNCCCNCC1` [AMD3100] as the compound, how does the “Delay in tumor growth (co-treatment)” value read?
Answer: Its value is “longer than NK-92 cells alone”.
